The values below come from patent publication US20230250077A1, “SULFONYLBENZAMIDE DERIVATIVE AND CONJUGATE THEREOF, PREPARATION METHOD THEREFOR AND USE THEREOF” (Jiangsu Hengrui Pharmaceuticals Co., Ltd., priority 2020, published 2023).

The target in one data set is T1, BCL-xL (Homo sapiens, UniProt Q07817).
T1 construct: purchased R&D 894-BX-050
The data set is described as follows: Binding activity for BCL-xL (HTRF, biotin-labeled BIM). The settings on record: His-tagged BCL-xL. The procedure:
In vitro BCL-xL-binding activity was tested by the following method.
Reagents used in this experiment: His-tagged BCL-xL protein (R&D, Cat #894-BX-050); biotin-labeled BIM protein (R&D, Cat #3526/1); binding buffer (cisbio, Cat #62DLBDDF); assay buffer (cisbio, Cat #62DB1FDG); MAb anti-6His-Eu cryptate (cisbio, Cat #61HI2KLA); and affinity streptomycin linked XL665 (cisbio, Cat #611SAXLA).
The in vitro binding assay described below can determine the binding activity of test compounds for BCL-xL.
The test compounds were dissolved in dimethyl sulfoxide and diluted to gradient concentrations as required for the experiment, and the compounds at various concentrations formulated in dimethyl sulfoxide were subjected to a 100-fold dilution with a binding buffer. BCL-xL was diluted to the corresponding concentration with a binding buffer, and added to a white 384-well plate at 4 μL/well. Then the diluted test compound was added to the white 384-well plate at 2 μL/well. The plate was incubated at 25° C. for 1 h after the mixture was uniformly mixed. Biotin-labeled BIM protein was diluted to the corresponding concentration with a binding buffer, and added to a white 384-well plate at 4 μL/well. The plate was incubated at 25° C. for 2 h after the mixture was uniformly mixed. The MAb anti-6His-Eu cryptate and the affinity streptomycin linked XL665 were each diluted to the corresponding concentration with an assay buffer, and added to a white 384-well plate at 5 μL/well. The plate was incubated at 25° C. for 2-4 h after the mixture was uniformly mixed. The signal values were read with the HTRF program in a microplate reader (BMG Labtech, model: PHERAstar FS).

A further data set addresses T2, BCL-2 (Homo sapiens, UniProt P10415).
T2 construct: purchased R&D systems 827-BC-050
The data set can be described thus: Binding activity for BCL-2 (HTRF, biotin-labeled BIM). The settings on record: His-tagged BCL-2, biotin-labeled BIM. Here is the method:
In vitro BCL-2-binding activity was tested by the following method.
Reagents used in this experiment: His-tagged BCL-2 protein (R&D systems, Cat #827-BC-050); biotin-labeled BIM protein (R&D, Cat #3526/1); binding buffer (cisbio, Cat #62DLBDDF); assay buffer (cisbio, Cat #62DB1FDG); MAb anti-6His-Eu cryptate (cisbio, Cat #61HI2KLA); and affinity streptomycin linked XL665 (cisbio, Cat #611SAXLA).
The in vitro binding assay described below can determine the binding activity of test compounds for BCL-2.
The test compounds were dissolved in dimethyl sulfoxide and diluted to gradient concentrations as required for the experiment, and the compounds at various concentrations formulated in dimethyl sulfoxide were subjected to a 100-fold dilution with a binding buffer. BCL-2 was diluted to the corresponding concentration with a binding buffer solution, and added to a white 384-well plate at 4 μL/well. Then the diluted test compound was added into the white 384-well plate at 2 μL/well. The plate was incubated at 25° C. for 1 h after the mixture was uniformly mixed. Biotin-labeled BIM protein was diluted to the corresponding concentration with a binding buffer, and added to a white 384-well plate at 4 μL/well. The plate was incubated at 25° C. for 2 h after the mixture was uniformly mixed. The MAb anti-6His-Eu cryptate and the affinity streptomycin linked XL665 were each diluted to the corresponding concentration with an assay buffer, and added to a white 384-well plate at 5 μL/well. The plate was incubated at 25° C. for 2-4 h after the mixture was uniformly mixed. The signal values were read with the HTRF program in a microplate reader (BMG Labtech, model: PHERAstar FS).

For data set [1], the system named is human acute lymphoblastic leukemia RS4;11 mouse subcutaneous xenograft tumor. The data set can be described thus: Therapeutic effect on RS4;11 mouse subcutaneous xenograft tumor. The following applies: NOD-Scid mice, RS4;11 xenograft; for Tolerability in tumor-bearing mice (weight loss) / Tumor rate TGI (%) inhibition: 10 mg/kg IV QW; for Tumor rate TGI (%) inhibition: D 20; for Mean tumor volume (mm^3) D 0: day 0, 10 mg/kg IV QW; for Mean tumor volume (mm^3) D 20: day 20, 10 mg/kg IV QW. The class given is in vivo. Here is the method: This experiment was performed to evaluate and compare the therapeutic effect of the compounds of the present disclosure on human acute lymphoblastic leukemia RS4;11 mouse subcutaneous xenograft tumor.
NOD-Scid mice, 5 weeks old, purchased from Beijing Huafukang Biotechnology Co., Ltd. Production license No.: SCXK (Beijing) 2019-0008; animal certification No.: 110322211100992176. Housing environment: SPF grade. 6 mice in a vehicle group, and 8 mice in a compound group.
5 mg of compound was added to 250 μL of DMSO and vortexed to provide a 20 mg/mL solution, which was diluted to the desired concentration with 30% hydroxypropyl-o-cyclodextrin (HP-3-CD, InnoStar Biotechnology Nantong Co., Ltd, Nantong).
Human acute lymphoblastic leukemia RS4;11 was purchased from American Type Culture Collection. RS4;11 cells were cultured in a 10 cm petri dish with an RPMI 1640 culture medium (Gibco) containing 10% fetal bovine serum (Gibco) and penicillin and streptomycin in an incubator at 37° C. containing 5% CO2. The cells were passaged twice a week, and then collected, counted and inoculated when in the exponential growth phase.
Each mouse was inoculated subcutaneously with 1×10^7 RS4;11 cells. When tumors grew to 100-200 mm^3, the mice were grouped according to tumor volume, intravenously (IV) injected with the drug once a week (QW) for a total of 4 times, at an injection volume of 0.1 mL/10 g body weight and a dose of 10 mg/kg.
The experimental index was to investigate the influence of the drug on the tumor growth, and the specific index was T/C % or tumor growth inhibition (TGI %).
Tumor diameters were measured twice a week with a vernier caliper and tumor volume (V) was calculated according to the following formula:
V=½×a×b^2 where a and b represent length and width, respectively.
T/C(%)=(T−T0)/(C−C0)×100,
where T and C represent the tumor volume of animals at the end of the experiment in the treatment group and control group, respectively;
T0 and C0 represent the tumor volume of animals at the beginning of the experiment in the treatment group and control group, respectively.
Tumor growth inhibition % (TGI %)=100−T/C(%).
When tumor started to regress, tumor growth inhibition % (TGI %)=100−(T−T0)/T0×100.
If the tumor had reduced volume compared with the initial volume, i.e., T<T0 or C<C0, it was defined as partial regression (PR) of tumor; if the tumor completely disappeared, it was defined as complete regression (CR) of tumor.

T1 sequence (Q07817 whole entry): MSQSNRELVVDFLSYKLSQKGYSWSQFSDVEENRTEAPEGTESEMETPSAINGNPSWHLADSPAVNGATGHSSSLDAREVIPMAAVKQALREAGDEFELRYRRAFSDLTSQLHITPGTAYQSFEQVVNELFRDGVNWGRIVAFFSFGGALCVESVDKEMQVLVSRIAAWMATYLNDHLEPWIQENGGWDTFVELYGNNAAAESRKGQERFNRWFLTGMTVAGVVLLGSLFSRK
T2 sequence (P10415 whole entry): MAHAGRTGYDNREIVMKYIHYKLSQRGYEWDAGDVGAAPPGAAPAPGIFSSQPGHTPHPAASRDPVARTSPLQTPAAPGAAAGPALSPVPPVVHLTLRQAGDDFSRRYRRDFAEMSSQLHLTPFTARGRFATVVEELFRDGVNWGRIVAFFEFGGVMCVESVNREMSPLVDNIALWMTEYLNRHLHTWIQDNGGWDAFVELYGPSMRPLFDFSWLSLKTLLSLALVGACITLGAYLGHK

As to `CN(CCO)CC[C@H](CSc1ccccc1)Nc1ccc(S(=O)(=O)NC(=O)c2ccc(N3CCC([C@@H](O)c4ccccc4-c4ccc(C(F)(F)F)cc4)CC3)cc2)cc1S(=O)(=O)C(F)(F)F` [Example 2-10, 4-(4-((R)-hydroxy(4′-(trifluoromethyl)-[1,1′-biphenyl]-2-yl)methyl)piperidin-1-yl)-N-((4-(((R)-4-((2-hydroxyethyl)(methyl)amino)-1-(phenylthio)butan-2-yl)amino)-3-((trifluoromethyl)sulfonyl)phenyl)sulfonyl)benzamide], the affinity at BCL-xL corresponds to a Ki of 0.07 nM. Besides, the affinity at BCL-2 corresponds to a Ki of 0.03 nM. Further, in data set [1], the “Tolerability in tumor-bearing mice (weight loss)” value is listed as “well tolerate”, the “Tumor rate TGI (%) inhibition” value is 82%, the “Mean tumor volume (mm^3) D 0” value amounted to 151.9 mm^3 and the “Mean tumor volume (mm^3) D 20” value was 443.3 mm^3.
Regarding `O=C(NS(=O)(=O)c1ccc(N[C@@H](CSc2ccccc2)C[C@@H]2CCCN2CCO)c(S(=O)(=O)C(F)(F)F)c1)c1ccc(N2CCC([C@@H](O)c3ccccc3-c3ccc(Cl)cc3)CC2)cc1` [Example 2-9, 4-(4-((R)-(4′-chloro-[1,1′-biphenyl]-2-yl)(hydroxy)methyl)piperidin-1-yl)-N-((4-(((R)-1-((S)-1-(2-hydroxyethyl)pyrrolidin-2-yl)-3-(phenylthio)propan-2-yl)amino)-3-((trifluoromethyl)sulfonyl)phenyl)sulfonyl)benzamide], the affinity at BCL-xL, expressed as Ki, was 0.07 nM. This compound also gave a Ki at BCL-2 of 0.02 nM. Further, in data set [1], the “Tolerability in tumor-bearing mice (weight loss)” value is “well tolerate”, the “Tumor rate TGI (%) inhibition” value is on record as 72%, the “Mean tumor volume (mm^3) D 0” value is 151.0 mm^3 and the “Mean tumor volume (mm^3) D 20” value came to 612.7 mm^3.
